Here are results for 1 compound from patent US20150231147A1, “METHODS FOR ACUTE AND LONG-TERM TREATMENT OF DRUG ADDICTION” (DemeRx, Inc., priority 2014, published 2015).

Like-named read-outs stand apart in the source and are kept apart here.

In data set [1] the test system is healthy, drug-free male volunteers. Briefly: Cold pressor test (analgesic effect). The class given is in vivo, human. On the procedure:
Analgesic effect was assessed based on duration of hand immersion in ice water and on visual analog scale (VAS) pain scores upon hand removal from the water bath.
Safety and tolerability of noribogaine were tested in the group of volunteers from Example 1. […] Safety evaluations included clinical monitoring, recording of adverse events (AEs), safety laboratory tests, vital signs, ECG telemetry from −2 h to 6 h after dosing, and 12-lead electrocardiograms (ECGs) up to 216 hours post-dosing.

A short description of data set [2]: Serum noribogaine pharmacokinetics in patients, Phase IB study. The class given is in vivo, human. Particulars: for Vd/F / AUC(0-t) / Cmax / Tmax / AUC / half-life: human, serum, opioid-dependent patients, mean ± SD; for Vd/F: unit inferred; for AUC: read-out: AUC(0-¥). As for the experimental part:
The efficacy of noribogaine in humans was evaluated in opioid-dependent participants in a randomized, placebo-controlled, double-blind trial. […] See U.S. application Ser. No. 14/214,157, filed Mar. 14, 2014 and Ser. No. 14/346,655, filed Mar. 21, 2014, which are incorporated herein by reference in their entireties.
Three cohorts of nine (9) subjects (6 administered noribogaine and 3 administered placebo in each cohort) were evaluated for tolerability, pharmacokinetics, and efficacy. Cohort 1 received a single dose of 60 mg noribogaine or placebo. Cohort 2 received a single dose of 120 mg noribogaine or placebo. Cohort 3 received a single dose of 180 mg noribogaine or placebo.

In the case of `CC[C@H]1CC2C[C@H]3c4[nH]c5ccc(O)cc5c4CCN(C2)C13` [Noribogaine], the “VAS pain scores, each dose group compared with placebo by ANOVA” value in data set [1] (after adjusting for baseline differences, p=0.17) is on record as “no statistically significant differences”. Also, the “duration of hand immersion, each dose group compared with placebo by ANOVA” value in data set [1] (after adjusting for baseline differences, p>0.9) is listed as “no statistically significant differences”. Further, in data set [1] (healthy volunteers, 3-60 mg single oral doses, 1° C. water), the “analgesic effect in the cold pressor test” value is recorded as “no analgesic effect”. For the same compound, in data set [2] (60, 120, 180 mg cohorts), the “dose dependence of maximum serum concentration (Cmax)” value is “increased in a dose-dependent manner”. Also, in data set [2] (Cohort 2 (120 mg)), the Vd/F (commonly the apparent distribution volume after extravascular dosing) was found to be 2110 ± 1640 L; the AUC(0-t) (commonly exposure summed from dosing to a finite time, without extrapolation to infinity) was found to be 3230 ± 1540 ng·h/mL; the Cmax (commonly the peak of the concentration-time curve) was 173 ± 30.7 ng/mL; the Tmax (usually the time at which the peak concentration occurs) amounted to 2.99 ± 1.23 h. Besides, in data set [2] (Cohort 2 (120 mg)), the half-life (usually the time in which the quantity being followed falls by half) was 1830 ± 548 min and the AUC (usually concentration integrated over time) is 3280 ± 1580 ng·h/mL. Moreover, in data set [2] (Cohort 3 (180 mg)), the Vd/F stood at 1030 ± 365 L, the AUC(0-t) turned out to be 6520 ± 2910 ng·h/mL, the Cmax is 268 ± 46.9 ng/mL and the Tmax is 4.41 ± 1.8 h. Also, in data set [2] (Cohort 3 (180 mg)), the half-life is 1440 ± 332 min and the AUC was 6890 ± 3490 ng·h/mL. Also, in data set [2] (Cohort 1 (60 mg)), the exposure AUC(0-t) stood at 2020 ± 614 ng·h/mL, the concentration peaked (Cmax) at 81.6 ± 23.8 ng/mL, the Tmax came to 3.59 ± 0.92 h and the exposure (AUC) worked out at 2060 ± 609 ng·h/mL.
